Results from the supplement of paper PMC5908809.

Columns and labels:
Test in all cases: relative IC50 (inflection point of fitted viability curve, relative to fitted max inhibition); higher = less sensitive
Conditions in all cases: 72 h
IMC-1 (IL-2 20 ng/mL) = system: IMC-1 (IL-2 20 ng/mL)
Description: (§1)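 Drug sensitivity and resistance testing: 5 concentrations over a 10,000-fold range, 72 h at 37 °C, viability by CellTiter-Glo normalised to DMSO and benzethonium chloride controls. IC50 is the inflection point of a logistic fit (min fixed at 0, max fitted), so it is relative to the fitted maximal inhibition. Kept only where fitted max inhibition is at least 50%.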

NK-92 (IL-2 2.5 ng/mL) = system: NK-92 (IL-2 2.5 ng/mL)
Description: as §1

NKL (IL-2 2.5 ng/mL) = system: NKL (IL-2 2.5 ng/mL)
Description: as §1

[1] = system: normal primary NK cells, pool 1 (3 donors) (IL-2 2.5 ng/mL)
Description: as §1

[2] = system: normal primary NK cells, pool 1 (3 donors), resting (IL-2 0 ng/mL)
Description: as §1

DERL-7 (IL-2 2.5 ng/mL) = system: DERL-7 (IL-2 2.5 ng/mL)
Description: as §1

KAI3 (IL-2 2.5 ng/mL) = system: KAI3 (IL-2 2.5 ng/mL)
Description: as §1

KHYG-1 (IL-2 2.5 ng/mL) = system: KHYG-1 (IL-2 2.5 ng/mL)
Description: as §1

NK-YS (IL-2 2.5 ng/mL) = system: NK-YS (IL-2 2.5 ng/mL)
Description: as §1

SNK-6 (IL-2 2.5 ng/mL) = system: SNK-6 (IL-2 2.5 ng/mL)
Description: as §1

YT (IL-2 2.5 ng/mL) = system: YT (IL-2 2.5 ng/mL)
Description: as §1

[3] = system: normal primary NK cells, pool 2 (3 donors) (IL-2 2.5 ng/mL)
Description: as §1

[4] = system: normal primary NK cells, pool 3 (3 donors) (IL-2 2.5 ng/mL)
Description: as §1

Row | Compound | relative IC50 (IMC-1 (IL-2 20 ng/mL)) [µM] | relative IC50 (NK-92 (IL-2 2.5 ng/mL)) [µM] | relative IC50 (NKL (IL-2 2.5 ng/mL)) [µM] | relative IC50 [1] [µM] | relative IC50 [2] [µM] | relative IC50 (DERL-7 (IL-2 2.5 ng/mL)) [µM] | relative IC50 (KAI3 (IL-2 2.5 ng/mL)) [µM] | relative IC50 (KHYG-1 (IL-2 2.5 ng/mL)) [µM] | relative IC50 (NK-YS (IL-2 2.5 ng/mL)) [µM] | relative IC50 (SNK-6 (IL-2 2.5 ng/mL)) [µM] | relative IC50 (YT (IL-2 2.5 ng/mL)) [µM] | relative IC50 [3] [µM] | relative IC50 [4] [µM]
1 | CCc1cncnc1N1CCN(Cc2nc3ccc(C(F)(F)F)cc3[nH]2)CC1 | 2.14 | 1.46 | 1.84 | 1.79 | 1.82 |  |  |  |  |  |  |  | 
2 | C[C@@H](Oc1cc(-n2cnc3ccc(CN4CCN(C)CC4)cc32)sc1C(N)=O)c1ccccc1C(F)(F)F | 0.0371 | 0.00734 | 0.046 | 1.78 | 0.374 | 0.0278 | 0.187 | 0.0171 | 0.0905 | 0.0322 | 0.053 | 1.64 | 2.34
3 | Cc1cnc(Nc2ccc(OCCN3CCCC3)cc2)nc1Nc1cccc(S(=O)(=O)NC(C)(C)C)c1 |  | 1.33 | 0.112 | 0.262 | 0.715 | 0.233 | 0.203 | 0.262 | 0.534 | 0.876 | 0.977 |  | 
4 | Cc1sc2c(c1C)C(c1ccc(Cl)cc1)=N[C@@H](CC(=O)OC(C)(C)C)c1nnc(C)n1-2 [(+)JQ1] |  |  | 0.113 | 0.546 | 1.08 | 0.0769 | 0.362 | 0.165 | 0.231 | 0.215 | 0.238 |  | 
5 | COc1cc(OC2CCN(C)CC2)ccc1Nc1ncc2c(n1)n(C1CCCC1)c(=O)n2C [AZ 3146] | 2.4 | 3.77 | 2.07 | 3.16 | 2.25 | 2.33 | 1.58 | 2.06 | 1.72 | 1.87 | 2.02 | 2.41 | 2.66
6 | COc1c(C)cnc(Cn2cnc3c(Cl)nc(N)nc32)c1C [BIIB021] | 0.15 | 0.0975 | 0.0957 | 0.181 | 0.226 | 0.0684 | 0.0543 | 0.0618 | 0.0796 | 0.0339 | 0.0982 | 0.104 | 0.254
7 | O=C(Nc1cccc(Nc2ncc(Br)c(NCCc3cnc[nH]3)n2)c1)N1CCCC1 [BX-912] | 0.735 | 1.17 | 1.01 | 1.27 |  | 1.06 | 0.474 | 0.507 | 1.85 | 0.482 | 1.51 | 1.17 | 1.42
8 | O=C(/C=C/c1cccc(S(=O)(=O)Nc2ccccc2)c1)NO [Belinostat] | 0.173 | 0.0817 | 0.152 | 0.113 | 0.0839 | 0.161 | 0.0825 | 0.128 | 0.182 | 0.156 | 0.213 | 0.143 | 0.2
9 | CC[C@H](NC(=O)[C@H](C)NC)C(=O)N1C[C@@H](O)C[C@H]1Cc1c(-c2[nH]c3cc(F)ccc3c2C[C@@H]2C[C@H](O)CN2C(=O)[C@H](CC)NC(=O)[C@H](C)NC)[nH]c2cc(F)ccc12 [Birinapant] |  |  |  | 0.311 | 0.338 |  |  |  | > 1 | > 1 |  | 0.278 | 
10 | CC(C)C[C@H](NC(=O)[C@H](Cc1ccccc1)NC(=O)c1cnccn1)B(O)O [Bortezomib] | 0.00334 | 0.00332 | 0.00328 | 0.00362 | 0.0047 | 0.00169 | 0.00307 | 0.00294 | 0.00304 | 0.00215 | 0.00297 | 0.00328 | 0.00362
11 | C#Cc1cccc(Nc2ncnc3cc(OC)c(OCCCCCCC(=O)NO)cc23)c1 [CUDC-101] | 1.02 | 0.277 | 0.412 | 0.293 | 0.198 | 0.177 | 0.27 | 0.131 | 0.889 | 0.276 | 0.267 | 0.347 | 0.504
12 | CC(C)[C@H]1C(=O)N[C@@H](CCCNC(=N)N)C(=O)NCC(=O)N[C@@H](CC(=O)O)C(=O)N[C@H](Cc2ccccc2)C(=O)N1C [Cilengitide] | > 10 | > 10 | > 10 | > 10 | > 10 |  |  | > 10 |  |  | > 10 | > 10 | > 10
13 | Nc1nc(Cl)nc2c1ncn2[C@H]1C[C@H](O)[C@@H](CO)O1 [Cladribine] | 0.086 | 0.0345 | 0.0342 | 0.0175 | 0.00737 | 0.0497 | 0.0759 | 0.0305 | 0.245 | 0.0492 | 0.235 | 0.0161 | 0.0248
14 | Nc1ccn([C@@H]2O[C@H](CO)[C@@H](O)[C@@H]2O)c(=O)n1 [Cytarabine] | 0.0854 | 0.096 | 0.0671 | 1.44 | 1.23 | 0.023 | 0.05 | 0.0273 | 0.33 | 0.193 |  | 1.9 | 2.37
15 | COc1cccc2c1C(=O)c1c(O)c3c(c(O)c1C2=O)C[C@@](O)(C(=O)CO)C[C@@H]3O[C@H]1C[C@H](N)[C@H](O)[C@H](C)O1 [Doxorubicin] | 0.0453 | 0.0762 | 0.00441 | 0.118 | 0.0599 | 0.0323 | 0.0272 | 0.0567 | 0.0294 | 0.0412 | 0.0696 | 0.119 | 0.159
16 | Nc1ccccc1NC(=O)c1ccc(CNC(=O)OCc2cccnc2)cc1 [Entinostat] | 2.33 | 0.479 | 0.494 | 1.33 | 0.582 | 1.57 | 0.399 | 0.954 | 1.68 | 0.456 | 2.46 | 1.53 | 2.91
17 | Nc1nc(F)nc2c1ncn2[C@@H]1O[C@H](CO)[C@@H](O)[C@@H]1O [Fludarabine] | 3.13 | 1.56 | 0.895 | 0.996 | 0.491 | 3.72 | 2.25 | 2.63 |  |  |  | 0.957 | 1.36
18 | CC(C)c1cc(-c2n[nH]c(=O)n2-c2ccc3c(ccn3C)c2)c(O)cc1O [Ganetespib] | 0.0323 | 0.0168 | 0.0104 | 0.00567 | 0.00618 | 0.00592 | 0.0118 | 0.0274 | 0.0131 | 0.0283 | 0.0358 | 0.00541 | 0.009
19 | NC(=O)N1CCC(CC(=O)N2CCC([C@H]3c4ncc(Br)cc4CCc4cc(Cl)cc(Br)c43)CC2)CC1 [Lonafarnib] |  | 0.719 |  | 1.66 | 0.693 | 0.708 |  | 0.492 | 0.45 |  | 1.06 | 1.58 | 1.86
20 | Cc1ccc(NC(=O)c2ccc(CN3CCN(C)CC3)cc2)cc1Nc1nc(-c2cccnc2)cs1 [Masitinib] | 3.32 | 3.69 | 3.39 | 3.23 | 3.34 | 2 | 2.97 | 2.69 | 2.01 | 4.53 | 2.49 | 3.5 | 3.23
